# Measured values published in US20110160216A1, “Thymidylate Synthase Haplotype is Associated with Tumor Recurrence in Stage II and Stage III Colon Cancer Patients” (UNIVERSITY OF SOUTHEM CALIFORNIA, priority 2008, published 2011).
# Marks after values point to notes of the source that are not given here.
# Tested on: locally advanced (Stage II/III) colon cancer
# Experiment: Retrospective study of time to tumor recurrence (TTR) after 5-FU-based adjuvant chemotherapy, by regimen and by TS/MTHFR genotype
# Assay type: in vivo, human
# Protocol: One hundred and ninety-seven (n=197) with locally advanced colon cancer who were treated with 5-FU-based adjuvant chemotherapy [bolus 5-FU: n=30, (15%); infusimal 5-FU: […], (85%)] either at the University of Southern California/Norris Comprehensive Cancer Center (USC/NCCC) or at the Los Angeles County/University of Southern California Medical Center (LAC/USCMC), between 1987 and 2007, were eligible for the present study. This study was conducted at the USC/NCCC and approved by the Institutional Review Board of the University of Southern California for Medical Sciences. Patient data were collected retrospectively through chart review. Informed consent was signed by all patients involved in the study.
# Whole blood was collected and genomic DNA was extracted using the QIAamp kit (Qiagen, CA, USA). Samples were tested using polymerase chain reaction restriction fragment length polymorphism (PCR-RFLP) technique. Briefly, forward and reverse primers were used for PCR amplification (see Table 7), PCR products were digested by restriction enzymes (New England Biolab, Massachusetts, USA) and alleles were separated using a 4% NuSieve ethidium bromide stained agarose gel. TS and MTHFR polymorphisms were tested by PCR, followed by allele-specific restriction enzyme digestion method, as previously described (Mandola, M. V. et al. (2003) Cancer Res 63:2898-904; Mandola, M. V. et al. (2004) Pharmacogenetics 14:319-27; Markan, S. et al. (2007) Mol Cell Biochem 302:125-31; Stern, L. L. et al. (2000) Cancer Epidemiol Biomarkers Prev 9:849-53).
# The primary endpoint in this study was time to tumor recurrence (TTR) in Stage II/III colon cancer patients, which was defined as the time from the date of diagnosis of Stage II/III colon cancer to the date of first recurrence, […], or until last contact if the patient was free of any tumor recurrence at the time of last contact. If a patient had not recurred, then TTR was censored at the time of death or at the last follow-up. The associations of time to tumor recurrence with patient's clinico-pathologic characteristics (age, sex, race, Stage, tumor grade, T-stage, N-stage and type of adjuvant chemotherapy) were assessed using univariate survival analyses (log-rank test).
# Polymorphisms of TS and MTHFR were coded as categorical variables according to their genotypes. The associations between TS and MTHFR polymorphisms and time to recurrence were examined using Kaplan-Meier curves and log-rank test. The distributions of polymorphisms across demographic characteristics were examined using Fisher's exact test. In the univariate survival analysis, the Pike estimate of relative risk (RR) and its associated 95% confidence interval (95% CI) was based on the log-rank test.
# [1] = patients receiving 5-FU only, MTHFR A + 1298C A/A
# [2] = patients receiving 5-FU only, MTHFR A + 1298C A/C
# [3] = patients receiving 5-FU only, MTHFR A + 1298C C/C
# [4] = patients receiving 5-FU only, MTHFR C + 677T C/C
# [5] = patients receiving 5-FU only, MTHFR C + 677T C/T
# [6] = patients receiving 5-FU only, MTHFR C + 677T T/T
# [7] = patients receiving 5-FU only, TS-3′UTR +6b/−6bp
# [8] = patients receiving 5-FU only, TS-3′UTR +6bp/+6bP
# [9] = patients receiving 5-FU only, TS-3′UTR −6bp/−6bp
# [10] = patients receiving 5-FU only, TS-5′UTR 2R/2R
# [11] = patients receiving 5-FU only, TS-5′UTR 2R/3R
# [12] = patients receiving 5-FU only, TS-5′UTR 3R/36
# [13] = patients receiving 5-FU only, TS-5′UTR/GC 2R/2R
# [14] = patients receiving 5-FU only, TS-5′UTR/GC 2R/3(G)
# [15] = patients receiving 5-FU only, TS-5′UTR/GC 2R/3R(C)
# [16] = patients receiving 5-FU only, TS-5′UTR/GC 3R(C)/3R(C)
# [17] = patients receiving 5-FU only, TS-5′UTR/GC 3R(G)/3R(C)
# [18] = patients receiving 5-FU only, TS-5′UTR/GC 3R(G)/3R(G)
smiles,measurement,setting,value
"O=c1[nH]cc(F)c(=O)[nH]1 [5-FU, 5-Fluorouracil]",Median time to recurrence (TTR) years (95% CI),all patients grouped by adjuvant therapy,6.6 years
same,Probablility ± SE of 3-year recurrence,"all patients grouped by adjuvant therapy, Greenwood SE",0.35 ± 0.04
same,Median time to recurrence (TTR) years (95% CI),[1],> 16.8^b years
same,Probability ± SE of 3-year recurrence,[1],0.31 ± 0.06
same,Median time to recurrence (TTR) years (95% CI),[2],5.9 years
same,Probability ± SE of 3-year recurrence,[2],0.35 ± 0.08
same,Relative risk,"patients receiving 5-FU only, MTHFR A + 1298C A/C vs A/A (Reference)",1.33
same,Median time to recurrence (TTR) years (95% CI),[3],6.6 years
same,Probability ± SE of 3-year recurrence,[3],0.40 ± 0.22
same,Relative risk,"patients receiving 5-FU only, MTHFR A + 1298C C/C vs A/A (Reference)",1.50
same,Median time to recurrence (TTR) years (95% CI),[4],6.6 years
same,Probability ± SE of 3-year recurrence,[4],0.26 ± 0.07
same,Median time to recurrence (TTR) years (95% CI),[5],5.4 years
same,Probability ± SE of 3-year recurrence,[5],0.41 ± 0.07
same,Relative risk,"patients receiving 5-FU only, MTHFR C + 677T C/T vs C/C (Reference)",1.30
same,Median time to recurrence (TTR) years (95% CI),[6],> 7.4^b years
same,Probability ± SE of 3-year recurrence,[6],0.21 ± 0.09
same,Relative risk,"patients receiving 5-FU only, MTHFR C + 677T T/T vs C/C (Reference)",0.55
same,Median time to recurrence (TTR) years (95% CI),[7],5.7 years
same,Probability ± SE of 3-year recurrence,[7],0.34 ± 0.07
same,Relative risk,"patients receiving 5-FU only, TS-3′UTR +6b/−6bp vs +6bp/+6bP (Reference)",1.33
same,Median time to recurrence (TTR) years (95% CI),[8],> 16.8^b years
same,Probability ± SE of 3-year recurrence,[8],0.28 ± 0.06
same,Median time to recurrence (TTR) years (95% CI),[9],> 7.7^b years
same,Probability ± SE of 3-year recurrence,[9],0.43 ± 0.12
same,Relative risk,"patients receiving 5-FU only, TS-3′UTR −6bp/−6bp vs +6bp/+6bP (Reference)",1.36
same,Median time to recurrence (TTR) years (95% CI),[10],> 16.8^b years
same,Probability ± SE of 3-year recurrence,[10],0.20 ± 0.08
same,Median time to recurrence (TTR) years (95% CI),[11],4.8 years
same,Probability ± SE of 3-year recurrence,[11],0.42 ± 0.07
same,Relative risk,"patients receiving 5-FU only, TS-5′UTR 2R/3R vs 2R/2R (Reference)",1.94
same,Median time to recurrence (TTR) years (95% CI),[12],6.6 years
same,Probability ± SE of 3-year recurrence,[12],0.29 ± 0.08
same,Relative risk,"patients receiving 5-FU only, TS-5′UTR 3R/36 vs 2R/2R (Reference)",1.43
same,Median time to recurrence (TTR) years (95% CI),[13],> 16.8^b years
same,Probability ± SE of 3-year recurrence,[13],0.20 ± 0.08
same,Median time to recurrence (TTR) years (95% CI),[14],4.8 years
same,Probability ± SE of 3-year recurrence,[14],0.44 ± 0.10
same,Relative risk,"patients receiving 5-FU only, TS-5′UTR/GC 2R/3(G) vs 2R/2R (Reference)",1.81
same,Median time to recurrence (TTR) years (95% CI),[15],5.9 years
same,Probability ± SE of 3-year recurrence,[15],0.38 ± 0.10
same,Relative risk,"patients receiving 5-FU only, TS-5′UTR/GC 2R/3R(C) vs 2R/2R (Reference)",1.79
same,Median time to recurrence (TTR) years (95% CI),[16],> 13.3^b years
same,Probability ± SE of 3-year recurrence,[16],0.17 ± 0.11
same,Relative risk,"patients receiving 5-FU only, TS-5′UTR/GC 3R(C)/3R(C) vs 2R/2R (Reference)",0.46
same,Median time to recurrence (TTR) years (95% CI),[17],5.7 years
same,Probability ± SE of 3-year recurrence,[17],0.24 ± 0.12
same,Relative risk,"patients receiving 5-FU only, TS-5′UTR/GC 3R(G)/3R(C) vs 2R/2R (Reference)",1.44
same,Median time to recurrence (TTR) years (95% CI),[18],1.4 years
same,Probability ± SE of 3-year recurrence,[18],0.61 ± 0.17
same,Relative risk,"patients receiving 5-FU only, TS-5′UTR/GC 3R(G)/3R(G) vs 2R/2R (Reference)",4.74
